Among the data in PubChem BioAssay (NCI) are GI50 and TGI values, retold here.

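48-hour exposure; five concentrations; linearly interpolated endpoints. The concentration for 50% growth inhibition is given as GI50. TGI marks complete inhibition of growth.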

Experiment in all cases: DTP human tumour cell line panel, 48 h
Experiment [1] concerns PC-3 prostate.
In experiment [2] the test system is HCT-116 colon.
The subject of experiment [3] is SNB-19 CNS.
Experiment [4] deals with HL-60(TB) leukemia.
In experiment [5] the test system is SF-268 CNS.
Experiment [6] relates to KM12 colon.
The test system of experiment [7] is NCI-H522 lung.
In experiment [8] the test system is A498 renal.

For orientation: GI50 means the concentration giving 50% growth inhibition. The term TGI denotes the concentration at which net growth stops. Low values mean greater sensitivity of the cells, high ones lower sensitivity of the cells. With `CN(C)CCNC(=O)c1ccc2c(c1)oc1cc3ccccc3c(=O)n12`, the GI50 in experiment [1] is 28.7 µM; in experiment [2] it was 16 µM; in experiment [3] it was 25.9 µM; in experiment [4], 23.8 µM; in experiment [5], 15.4 µM; in experiment [6] it was 17 µM. The TGI in experiment [1] is above 100 µM; in experiment [2], 29.4 µM; in experiment [3], 48.7 µM; in experiment [4], 87.9 µM; in experiment [5], 31.7 µM; in experiment [6], 45.3 µM.

Take `COc1cc(/C=C/C(=O)c2c(C)n([O-])c3ccccc3[n+]2=O)cc(OC)c1OC`: the GI50 in experiment [7] is 8.73 µM; in experiment [1], 4.45 µM; in experiment [2] it was 2.56 µM; in experiment [3], 10.5 µM; in experiment [8], 3.97 µM; in experiment [4], 5.24 µM. In addition, the GI50 in experiment [5] is 5.65 µM; in experiment [6], 10.7 µM. The TGI was 24 µM in experiment [7]; 19.3 µM in experiment [1]; 13.8 µM in experiment [2]; 23.3 µM in experiment [3]; 17.8 µM in experiment [8]; above 100 µM in experiment [4]. Besides, the values for the TGI in experiment [5] and in experiment [6] were 25.7 µM and 24.7 µM, respectively.

On to `O=C1/C(=C/c2ccc(F)cc2)COc2ccc(O)c(O)c21`, for which the GI50 in experiment [7] is 0.304 µM; in experiment [1] it was 1.16 µM; in experiment [2] it was 1.87 µM; in experiment [3] it was 3.36 µM; in experiment [8] it was 12.5 µM; in experiment [4] it was 0.604 µM. For the same compound, the GI50 in experiment [5] is 2.51 µM; in experiment [6], 1.99 µM. For the same compound, the TGI in experiment [7] is 1.24 µM; in experiment [1] it was above 100 µM; in experiment [2], 4.98 µM; in experiment [3], 15.8 µM; in experiment [8], 28.3 µM; in experiment [4], 3.89 µM. In addition, the TGI came out at 9.27 µM in experiment [5] and 6.82 µM in experiment [6].

Turning to `Nc1n[n+]([O-])c2ccc(Cl)cc2[n+]1[O-]`, the TGI in experiment [7] is 38.2 µM; in experiment [1], above 100 µM; in experiment [2], above 100 µM; in experiment [3], above 100 µM; in experiment [8], 96.6 µM; in experiment [4], above 100 µM. For the same compound, the TGI is above 100 µM in experiment [5] and 32.6 µM in experiment [6].

`O=C(CSSCC(=O)c1ccc(Cl)cc1)c1ccc(Cl)cc1`: the GI50 in experiment [7] was 3.56 µM; in experiment [1] it was 6.12 µM; in experiment [2] it was 3.79 µM; in experiment [3] it was 4.94 µM; in experiment [8], 9.77 µM; in experiment [4] it was 3.75 µM. Moreover, the GI50 in experiment [5] is 4.3 µM; in experiment [6], 3.82 µM. The TGI was 15.3 µM in experiment [7]; 30.5 µM in experiment [1]; 14.8 µM in experiment [2]; 40.3 µM in experiment [3]; 23 µM in experiment [8]; above 100 µM in experiment [4]. The TGI was 64.7 µM in experiment [5] and 24.4 µM in experiment [6].

On to `Cc1cccc(CNc2c3ccccc3nc3ccccc23)c1`, for which the GI50 is 1.53 µM in experiment [7]; 1.99 µM in experiment [1]; 0.927 µM in experiment [2]; 3.07 µM in experiment [3]; 1.32 µM in experiment [8]; 2.26 µM in experiment [4]. Also, the GI50 is 3.06 µM in experiment [5] and 3.16 µM in experiment [6]. Further, the TGI worked out at 4.67 µM in experiment [7]; 7.11 µM in experiment [1]; 4.4 µM in experiment [2]; 13 µM in experiment [3]; 2.7 µM in experiment [8]; 5.28 µM in experiment [4]. Further, the TGI in experiment [5] was found to be 11.8 µM; in experiment [6], 12.1 µM.

As to `O=C1OC(c2ccc([N+](=O)[O-])cc2)=N/C1=C\c1ccc(Cl)cc1`, the TGI in experiment [7], in experiment [1], in experiment [2], in experiment [3], in experiment [8] and in experiment [4] was above 100 µM in each case. Besides, the TGI in experiment [5] and in experiment [6] was above 100 µM each time.

Consider `CCN(Cc1cc(Cl)cc(C)c1O)Cc1c(O)ccc2ccccc12`, for which the total growth inhibition concentration (TGI) in experiment [7] was determined as 31.8 µM; in experiment [1], 29.9 µM; in experiment [2], 33.1 µM; in experiment [3] it was 40.9 µM; in experiment [8], 33.1 µM; in experiment [4], 34 µM. The TGI in experiment [5] came out at 34.8 µM; in experiment [6], 33 µM.

Consider `CN(c1cccc(C(=O)O)c1)c1cc(O/N=[N+](\[O-])N(C)C)c([N+](=O)[O-])cc1[N+](=O)[O-]`, for which the GI50 in experiment [7] is above 100 µM; in experiment [1], above 100 µM; in experiment [2], above 100 µM; in experiment [3], above 100 µM; in experiment [4] it was 72.2 µM; in experiment [5] it was 55.5 µM. Further, the GI50 in experiment [6] was above 100 µM. Moreover, the TGI in experiment [7], in experiment [1], in experiment [2], in experiment [3], in experiment [4] and in experiment [5] was above 100 µM throughout. Further, the TGI in experiment [6] was above 100 µM.

In the case of `O=C(Nc1cc(Cl)c(I)c(Cl)c1)C(F)(F)F`, the TGI is 42.2 µM in experiment [7]; 83.8 µM in experiment [1]; 71.2 µM in experiment [2]; above 100 µM in experiment [3]; 47.8 µM in experiment [8]; 58.3 µM in experiment [4]. Also, the results for the TGI in experiment [5] and in experiment [6] were above 100 µM and 85.4 µM, respectively.

`O=C(O)CCCN1C(=O)/C(=C/C(Cl)=C/c2ccccc2)SC1=S`: the GI50 in experiment [7] is 2.21 µM; in experiment [1], 2.23 µM; in experiment [2], 1.13 µM; in experiment [3], 2.78 µM; in experiment [8], 1.96 µM; in experiment [4], 0.551 µM. For the same compound, the GI50 in experiment [5] was 2.5 µM; in experiment [6] it was 1.47 µM. For the same compound, the TGI in experiment [7] was found to be 6.62 µM; in experiment [1], 10.3 µM; in experiment [2], 4 µM; in experiment [3], 10.9 µM; in experiment [8], 3.57 µM; in experiment [4], 10.5 µM. For the same compound, the TGI in experiment [5] stood at 7.41 µM; in experiment [6], 3.54 µM.
